Data as given in PubChem BioAssay (NCI).
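All cell lines were grown in 96-well plates and treated with compound for 48 hours. Here, GI50 denotes the concentration required for 50% inhibition of growth. TGI: concentration producing complete growth inhibition.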 Where a SMILES comes first, the peptide text is derived from it. The star is where a group is joined. Cbz = O=C(OCc1ccccc1)*; CH2Cl = ClC*

Experiments:
Assay in all cases: NCI-60 cell line screen, 48 h
BT-549 breast = system: BT-549 breast
COLO 205 colon = system: COLO 205 colon
DU-145 prostate = system: DU-145 prostate
MALME-3M melanoma = system: MALME-3M melanoma
MCF7 breast = system: MCF7 breast
NCI-H23 lung = system: NCI-H23 lung
NCI/ADR-RES ovarian = system: NCI/ADR-RES ovarian
OVCAR-3 ovarian = system: OVCAR-3 ovarian
SF-295 CNS = system: SF-295 CNS
SN12C renal = system: SN12C renal

Row | Compound | GI50 (BT-549 breast) [µM] | TGI (BT-549 breast) [µM] | GI50 (COLO 205 colon) [µM] | TGI (COLO 205 colon) [µM] | GI50 (DU-145 prostate) [µM] | TGI (DU-145 prostate) [µM] | GI50 (MALME-3M melanoma) [µM] | TGI (MALME-3M melanoma) [µM] | GI50 (MCF7 breast) [µM] | TGI (MCF7 breast) [µM] | GI50 (NCI-H23 lung) [µM] | TGI (NCI-H23 lung) [µM] | GI50 (NCI/ADR-RES ovarian) [µM] | TGI (NCI/ADR-RES ovarian) [µM] | GI50 (OVCAR-3 ovarian) [µM] | TGI (OVCAR-3 ovarian) [µM] | GI50 (SF-295 CNS) [µM] | TGI (SF-295 CNS) [µM] | GI50 (SN12C renal) [µM] | TGI (SN12C renal) [µM]
1 | CO/N=C(\COc1ccc2c(c1)oc(=O)c1cc(OC)ccc12)c1ccc(OC)cc1 | > 100 | > 100 | > 100 | > 100 | > 100 | > 100 | > 100 | > 100 | > 100 | > 100 | > 100 | > 100 | > 100 | > 100 | > 100 | > 100 | > 100 | > 100 | > 100 | > 100
2 | Clc1ccc2[nH]cc(-c3nnnn3-c3ccccc3)c2c1 | 22.2 | 68.9 | 23.1 | > 57.8 | 24.5 | > 76.6 | 13.5 | > 56.5 | 29.8 | > 100 | 8.11 | 49.9 | 7.61 | 41.8 | 6.66 | > 42.5 | 13.3 | 52.7 | 32.8 | > 100
3 | Cc1nn(-c2ccc(Cl)cc2)c2nc3c(nc12)C(=O)c1ccccc1-3 | > 100 | > 100 | > 100 | > 100 | > 100 | > 100 | > 100 | > 100 | 51.9 | > 100 | > 100 | > 100 | > 100 | > 100 | > 100 | > 100 | > 100 | > 100 | > 100 | > 100
4 | COc1ccc2[nH]cc(C3(c4c[nH]c5ccc(OC)cc45)C(=O)Nc4ccc(F)cc43)c2c1 | 3.21 | 11.7 | 1.69 | 3.05 | 3.71 | 13.1 | 2.44 | 22.4 | 2.72 | 10.1 | 2.43 | 8.06 | 5.76 | 31.1 | 2.15 | 4.42 | 1.79 | 4.85 | 2.97 | 12.1
5 | CC(=O)OC12C=CC(=O)N1c1ccccc1C(=O)O2 (centres undefined) | > 100 | > 100 |  | > 100 | > 100 | > 100 |  | > 85.8 | > 100 | > 100 |  | > 100 | > 100 | > 100 |  | > 100 |  | > 100 |  | > 100
6 | CCn1c2ccccc2c2cc(NC(=O)Nc3ccc([N+](=O)[O-])cc3C)ccc21 | 2.02 | 6.46 | 2.82 | 10.3 | 5.38 | > 100 | 2.28 | 13 | 3.7 | > 100 | 3.9 | 30.6 | 4.65 | > 100 | 3.39 | 19.4 | 2.29 | 9.13 | 9.3 | > 100
7 | O=C(c1ccccc1)c1cc2ccccc2o1 | 73 | > 100 | > 100 | > 100 | 73.6 | > 100 | > 100 | > 100 | > 100 | > 100 | > 100 | > 100 | 77.4 | > 100 | 59.6 | > 100 | 71.7 | > 100 | > 100 | > 100
8 | CC(C)CC(NC(=O)OCc1ccccc1)C(=O)NC(Cc1ccccc1)C(=O)CCl (stereo not drawn) (Cbz-Leu-Phe-CH2Cl; configuration not given here) |  | 6.16 |  | 8.44 |  | > 100 |  | 4.16 |  | 7.85 |  | 4.9 |  | 11.4 |  | 8.26 |  | 43.7 |  | 3.39
9 | C#C[C@]1(O)CCC2C3CCc4cc(O)ccc4C3CC[C@@]21C (some centres undefined) | 4.64 | 18.4 | 3.86 | 14 | 6.71 | 23.5 | 7.08 | 22.4 | 9.51 | 25.2 | 4.7 | 25.7 | 3.14 | 25.4 | 3.14 | 8.43 | 2.7 | 12.2 | 6.41 | 37.6
